Assay results: article PMC11522901, “Translation of Deoxyribonucleic Acid into Synthetic Alpha Helical Peptides for Darwinian Evolution” (JACS Au, 2024)

Tested on: GST-MDM2
Test: Binder/nonbinder affinity selection on GST-MDM2 beads with plate reader readout
Assay type: binding
Details: 1:1 mixture, 500 nM each, 2 h at 4 °C with GST-MDM2 on GSH beads, four washes, elution 95 °C 5 min
Description: We next investigated whether a templated ligation could yield peptides in an α-helical conformation. Since CD-based analyses would be difficult to interpret given the PNA, we opted to assess the helical nature of the peptide using binding to a target that requires this conformation. To this end, we used MDM2, an important regulator of the p53 tumor suppressor, which binds to an α-helix of p53[47] and has been a testing ground for stapling technologies[48]−[52] and screening technologies.[53]−[56] Additionally, several X-ray diffraction structures of the MDM2-peptide complex have been reported, supporting the importance of the helicity of the peptide.[51],[57],[58] […] Affinity selection of this mixture against GST-MDM2 immobilized on GSH beads was monitored by fluorescence quantification of the supernatant solution. […]
Ten μL of MagneGST glutathione particles (Promega #V8611) were blocked with 1 mg/mL BSA in PBS-CHAPS (10 mM phosphate buffer, 2.7 mM KCl, and 137 mM NaCl, pH 7.4, with 0.05% CHAPS) three times at room temperature for 5 min. […] The initial library, post-incubation library, washes, and elution were analyzed by a plate reader (SpectraMax i3x, in black 96-well microtiter plates (Thermo Scientific #267342)). […]

Substance: PNA- Gly Ser Nle Cba Gln Ala Trp Tyr Glu Nle Phe Thr Leu Gly -PNA (head to tail) [binder]
- recovery in heat elution after affinity selection (fluorescence): strong recovery
